Reference: paper PMC7408547, “Bivalent Inhibitor with Selectivity for Trimeric MMP-9 Amplifies Neutrophil Chemotaxis and Enables Functional Studies on MMP-9 Proteoforms” (Cells, 2020)

Experiments:
[1] = molecular target: T1, recombinant human MMP-9 trimers (Homo sapiens, UniProt P14780); assay: Gelatin degradation assay, recombinant MMP-9 trimers; format: biochemical
T1 construct: made in house; host or cells: Sf9 insect cells
Description: Compounds 5 and 7 were synthesized as previously reported. Full-length human proMMP-9 was produced by recombinant expression in Sf9 insect cells and purified by gelatin-Sepharose chromatography as previously described. Stable full-length proMMP-9 monomers and trimers were separated by glycerol gradient ultracentrifugation as previously described. ProMMP-9 mixture and the separated monomers and trimers were activated by incubation with the catalytic domain of MMP-3 (cat. No. 444217, Merck Millipore, Darmstadt, Germany) as previously described. Activation of proMMP-9 was confirmed by a band shift of ±10 kDa, corresponding to the removal of the auto-inhibitory propeptide domain and by detection of gelatinolytic activity with a previously described gelatin degradation assay. MMP-9 monomers and trimers purified from human neutrophils were purchased (Cat. No. 444,231 and 444232, Sigma-Aldrich, St. Louis, MO, USA). Examples of sample purities and activations can be found in Supplementary Figure S1. Recombinant human proMMP-2 (CHO cell-derived), proMMP-3 (NS0 cell-derived), proMMP-7 (NS0 cell-derived) and proMMP-8 (NS0 cell-derived) were purchased from R & D systems (Minneapolis, MN, USA), dissolved in assay buffer (150 mM NaCl, 5 mM CaCl2, 0.01% Tween-20, 50 mM Tris, pH 7.4) to a concentration of 100 µg/mL and activated by incubation with 1 mM p-aminophenylmercuric acetate for, respectively, 1h, 6h, 2h and 1h. Activation of MMPs was confirmed by a band shift of approximately 10 kDa, corresponding to the removal of the propeptide domain. MMP-14/MT1-MMP (NS0 cell-derived) was also purchased from R & D systems (Minneapolis, MN, USA) and activated by incubation with recombinant human furin (cat. No. 1503-SE-010, R & D systems, Minneapolis, MO, USA) in activation buffer (50 mM Tris, 1 mM CaCl2, 0.5% Brij-35, pH 9) for 1.5 h and activity was tested in assay buffer (50 mM Tris, 3 mM CaCl2, 1 µM ZnCl2, pH 8.5). Active human neutrophil elastase (NE) was purchased from Abcam (Cambridge, UK) and for activity assays of NE the assay buffer was replaced by 200 mM Tris, pH 8.8. ADAM17/TACE (Sf 21 (baculovirus)-derived, R & D systems, Minneapolis, MO, USA) was diluted and evaluated in 25 mM Tris, 2.5 μM ZnCl2, 0.005% Brij-35, pH 9.0. All stocks of the compounds were evaluated for the presence of endotoxin using the EndoZyme II assay (Hyglos bioMérieux, Bernried am Starnberger See, Germany). Endotoxin levels in all concentrated stocks (2.5 mg/mL) were below the accepted limit of 0.5 EU/mL.
(§1) To determine the inhibition of gelatinolytic activity, we used a previously optimized gelatin degradation assay. Activated MMP-9, activated MMP-2, neutrophil elastase or supernatants of stimulated neutrophils, were incubated with different concentrations of inhibitors and incubated for 30 min at 37 °C. Next, dye-quenched gelatin (DQ™-gelatin, Invitrogen, Carlsbad, CA, USA) was added at a final concentration of 2.5 µg/mL and the increase in fluorescence over time was measured with the CLARIOstar microplate reader (BMG Labtech, Ortenberg, Germany). For other MMPs, the OmniMMP substrate peptide (Mca-PLGL-Dpa-AR-NH2, cat. no. BML-P126-0001, Enzo Life Sciences, Farmingdale, NY, USA) was used at a final concentration of 2.5 µg/mL. For ADAM17 the fluorogenic peptide Mca-PLAQAV-Dpa-RSSSR-NH2 (ES003, R & D systems, Minneapolis, MO, USA) and for neutrophil elastase the fluorogenic substrate MeOSuc-AAPV-AMC (cat. no. 324740, Merck Millipore, Darmstadt, Germany) were used. Proteolytic activity was determined by linear regression of the fluorescence curve and the percentage inhibition was calculated through comparison with the positive control (no inhibitors). When testing supernatants from human neutrophils, the assay was performed in the presence of 20 µM neutrophil elastase inhibitor (Elastase Inhibitor IV, Calbiochem, Darmstadt, Germany).

[2] = system: secretions of fMLF stimulated human granulocytes; assay: Gelatinolysis in secretions of fMLF stimulated human granulocytes; format: biochemical; settings: in the presence of 20 µM neutrophil elastase inhibitor; for inhibition of metalloproteinase-derived gelatinolytic signal: highest dose of 100 µM
Description: as §1
Neutrophils were isolated from fresh blood from healthy donors, via density gradient centrifugation as described. To obtain neutrophil degranulate, neutrophils were suspended in degranulation buffer (120 mM NaCl, 15 mM CaCl2, 20 mM Tris/HCl pH 7.5) at a concentration of 10^7 cells/mL and degranulation was induced by incubating neutrophils with N-formyl-methionyl-leucyl-phenylalanine (fMLF) (final concentration 0.5 µM) for 20 min at 37 °C as previously described. Next, the supernatant was collected by centrifugation. For fresh blood donations, all subjects gave written informed consent in accordance with the Declaration of Helsinki.

U-87 cell line = assay: U-87 cell viability (LIVE/DEAD); format: cell-based; settings: up to a concentration of 20 µM; 17 h
Description: (§2) Toxicity of compounds 5 and 7 was evaluated in vitro on the U-87 cell line. Briefly, U-87 cells were seeded in 96-well plates (cat. No. 92096, TPP Techno Plastic Products, Trasadingen, Switzerland) at 2000 cells/well in DMEM FluoroBrite containing 10% FBS and incubated for 24 h. Cells were washed and further grown in DMEM FluoroBrite with 5% KnockOut™ Serum Replacement (Gibco, Waltham, MA, USA). Compounds 5 and 7 were added to the wells in a 1:2 dilution series starting at 20 µM and ending at 0.16 µM. To evaluate the effect of the compound on cell growth, confluence was determined every hour for 17h using the Incucyte® S3 Live-Cell Analysis System (Sartorius, Göttingen, Germany). Next, cells were stained with the LIVE/DEAD™ Viability/Cytotoxicity Kit for mammalian cells (Invitrogen, Carlsbad, CA, USA; cat. # L3224) and cell viability was evaluated. Data were normalized to the mean confluence of wells containing no inhibitors. To measure the stability of the compounds, fresh blood was collected from heathy mice by cardiac puncture with a heparin-coated needle and syringe and 30UI/mL heparin was added. Next, compound 5, compound 7 or vehicle (DMSO) was added to the blood at a final concentration of 500 µM and incubated at 37 °C. […] Background inhibition was subtracted and results were expressed as percentage inhibition.

[3] = Ex vivo stability in mouse blood (remaining MMP-9 inhibitory activity); format: in vitro ADME; settings: 500 µM in freshly isolated mouse blood, 37 °C; plasma and cell lysates
Description: as §2

[4] = recombinant human MMP-9 (Sf9) tri, gelatin degradation

T1 sequence (P14780 107-707 limits assumed): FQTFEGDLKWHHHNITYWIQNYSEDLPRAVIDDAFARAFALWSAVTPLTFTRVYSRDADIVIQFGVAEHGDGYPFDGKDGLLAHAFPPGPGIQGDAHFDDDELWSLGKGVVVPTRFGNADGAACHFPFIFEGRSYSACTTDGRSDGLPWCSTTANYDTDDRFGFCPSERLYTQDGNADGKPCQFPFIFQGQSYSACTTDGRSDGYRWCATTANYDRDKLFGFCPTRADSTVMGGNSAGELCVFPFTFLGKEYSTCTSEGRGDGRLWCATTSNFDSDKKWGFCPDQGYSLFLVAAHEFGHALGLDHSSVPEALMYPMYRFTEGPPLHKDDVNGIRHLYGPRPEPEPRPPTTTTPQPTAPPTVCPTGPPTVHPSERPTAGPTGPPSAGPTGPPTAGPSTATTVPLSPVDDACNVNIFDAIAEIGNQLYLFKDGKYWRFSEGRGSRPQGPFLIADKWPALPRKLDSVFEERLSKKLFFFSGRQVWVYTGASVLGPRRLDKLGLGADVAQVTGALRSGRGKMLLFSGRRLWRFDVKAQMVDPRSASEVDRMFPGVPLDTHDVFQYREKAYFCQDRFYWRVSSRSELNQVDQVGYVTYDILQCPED

| Structure (SMILES) | IC25 [1, 4] [µM] | IC50 [1, 4] [µM] | IC75 [1, 4] [µM] | inhibition of metalloproteinase-derived gelatinolytic signal [2] | cellular toxicity (cell viability of U-87 cells) (U-87 cell line) | ex vivo stability: remaining MMP-9 inhibitory activity [3] | fold more potent at inhibiting gelatinolysis by trimeric versus monomeric MMP-9 ([1]; recombinant human MMP-9, gelatin substrate) | inhibition of metalloproteinase-derived gelatinolytic signal, first inhibition plateau ([2]; around a concentration of 1 µM) |
| --- | --- | --- | --- | --- | --- | --- | --- | --- |
| CC(C)[C@H](C(=O)O)N(CCNC(=O)c1ccccc1)S(=O)(=O)c1ccc(-c2ccccc2)cc1 [Compound 5] | 0.526 | 2.25 | 9.66 | approximately 30% | nor did they induce cellular toxicity | remained detectable up to 24h later | – | – |
| CC(C)[C@H](C(=O)O)N(CCNC(=O)c1cccc(C(=O)NCCN([C@@H](C(=O)O)C(C)C)S(=O)(=O)c2ccc(-c3ccccc3)cc2)c1)S(=O)(=O)c1ccc(-c2ccccc2)cc1 [Compound 7] | – | 0.00018 | 0.018 | almost complete inhibition | nor did they induce cellular toxicity | remained detectable up to 24h later | over 1000 fold | approximately 30% |
